Patent US11725012B2, “Imidazo[1,5-a]pyrazine derivatives as PI3K δ inhibitors” (priority 2016, dated 2023)
Where two headings read alike, the source gives them in different places.

Columns and labels:
[1] = biological target: recombinant PI3K (p110α/p85α) (Homo sapiens, UniProt P42336); test: PI3Kα ADP-Glo kinase assay; assay type: biochemical
[2] = biological target: recombinant PI3K (p110δ/p85α) (Homo sapiens, UniProt O00329); test: PI3Kδ ADP-Glo kinase assay; assay type: biochemical
In short: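 ADP-Glo luminescence with recombinant p110δ/p85α and lipid kinase substrate. Compound serial dilutions preincubated 0.5 hr, ATP added, reaction 1 hr at room temperature, then ATP depletion and detection steps. IC50 from a four-parameter logistic fit of residual activity.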

[3] = Pharmacokinetic properties in Sprague-Dawley rats after IV and PO administration; assay type: in vivo; conditions: male, plasma, rat; for Vd: read-out: VdSS
Procedure: III. Pharmacokinetic Properties of Compounds in Sprague-Dawley Rats after Intravenous (IV) and Oral Administrations (PO)
Dose Formulation Preparation The injection dosing solution was prepared as follows: 1.0 mg of a test compound was weighted and dissolved in 0.32 mL of dimenthyl acetamide (DMA). The solution was then further diluted by 0.36 mL of ethanol and 0.32 mL of propylene glycol. The final concentration of the test compound was 1.0 mg·mL^−1.
The oral dosing solution was prepared as follows: 5.0 mg of a test compound was weighed and dispersed in […] of 0.5% methyl cellulose (MC). The final concentration of the test compound is 1 mg·mL^−1.
The animals were housed in solid bottom polypropylene cages with sterilized bedding and receive sterilized diet and sterilized water. The room was controlled and monitored for humidity (targeted mean range 40% to 70%) and temperature (targeted mean range 18° C. to 26° C.) with 10 to 20 air changes/hour. The light cycle was maintained at 12-h light and 12-h dark, Only animals that appeared to be healthy were selected for this study based on overall health, body weight, or other relevant information.
The male Sprague-Dawley rats were fasted overnight with free access to drinking water prior to treatment. On day 1, the animals were weighed and actual dose volume for each animal was calculated using the formula below: Dose Volume (mL)=[Nominal Dose (mg·kg^−1)/Dose Concentration (mg·mL^−1)]×Animal Body Weight (kg) (1)
Three rats were given a single IV dose of 1 mg·kg^−1 via tail vein injection and other three rats were given a single oral dose of 5 mg·kg^−1. The dosing solutions were freshly prepared prior to dose administration. The actual body weights and actual volume injected were recorded accordingly. Four hours after dosing, the rats were allowed to intake food.
Blood samples ([…]) were collected at different times from the jugular vein catheter into EDTA-K2 coated tubes, Whole blood was processed by centrifugation at 3000 g for 10 min. Plasma samples were collected and kept at −80° C. freezer prior to analysis. The blood sampling time was recorded accordingly.
The dose samples of IV and PO were diluted with MeOH:H2O (4:1, v/v) to achieve the concentration of 2 μg·mL^−1, respectively. Then, 2.5 μL of the diluted samples were added with 47.5 μL blank plasma, and then were handled as the plasma sample procedure. An aliquot of 10 μL of the mixture was injected into the LC-MS/MS system.

[4] = biological target: PI3K (p110γ) (Homo sapiens, UniProt P48736); test: PI3Kγ ADP-Glo kinase assay; assay type: biochemical
PI3K (p110γ), sequence (P48736 whole entry): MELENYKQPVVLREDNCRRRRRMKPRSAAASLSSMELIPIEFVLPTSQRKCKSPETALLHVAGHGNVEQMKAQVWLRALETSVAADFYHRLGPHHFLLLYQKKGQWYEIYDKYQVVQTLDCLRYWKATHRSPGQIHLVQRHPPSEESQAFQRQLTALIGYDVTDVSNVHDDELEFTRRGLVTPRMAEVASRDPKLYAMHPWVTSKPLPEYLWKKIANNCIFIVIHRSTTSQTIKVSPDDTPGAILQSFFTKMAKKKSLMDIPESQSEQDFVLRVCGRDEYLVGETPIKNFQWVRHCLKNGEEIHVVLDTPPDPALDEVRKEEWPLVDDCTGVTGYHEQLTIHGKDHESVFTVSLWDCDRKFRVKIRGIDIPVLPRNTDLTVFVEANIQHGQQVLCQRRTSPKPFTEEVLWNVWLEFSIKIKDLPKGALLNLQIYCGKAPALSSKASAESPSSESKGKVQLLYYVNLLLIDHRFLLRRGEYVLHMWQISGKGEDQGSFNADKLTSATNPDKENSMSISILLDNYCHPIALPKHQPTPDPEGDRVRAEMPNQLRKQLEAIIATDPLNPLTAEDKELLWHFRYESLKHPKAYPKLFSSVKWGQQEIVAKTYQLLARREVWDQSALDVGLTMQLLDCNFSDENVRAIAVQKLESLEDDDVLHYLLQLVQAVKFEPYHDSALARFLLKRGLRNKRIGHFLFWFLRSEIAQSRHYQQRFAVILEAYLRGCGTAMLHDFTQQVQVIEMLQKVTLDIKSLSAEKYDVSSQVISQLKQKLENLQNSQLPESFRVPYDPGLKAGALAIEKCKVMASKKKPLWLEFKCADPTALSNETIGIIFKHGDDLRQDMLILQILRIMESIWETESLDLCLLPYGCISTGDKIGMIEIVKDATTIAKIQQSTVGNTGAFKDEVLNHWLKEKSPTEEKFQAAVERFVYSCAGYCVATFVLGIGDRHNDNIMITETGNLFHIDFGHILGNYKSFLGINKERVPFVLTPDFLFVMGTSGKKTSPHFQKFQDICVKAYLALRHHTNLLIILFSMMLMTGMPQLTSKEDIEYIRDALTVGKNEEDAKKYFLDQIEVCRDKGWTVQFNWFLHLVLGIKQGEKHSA

[5] = biological target: PI3K (p110β/p85α) (Homo sapiens, UniProt P42338); test: PI3Kβ ADP-Glo kinase assay; assay type: biochemical
PI3K (p110β/p85α), sequence (P42338 whole entry): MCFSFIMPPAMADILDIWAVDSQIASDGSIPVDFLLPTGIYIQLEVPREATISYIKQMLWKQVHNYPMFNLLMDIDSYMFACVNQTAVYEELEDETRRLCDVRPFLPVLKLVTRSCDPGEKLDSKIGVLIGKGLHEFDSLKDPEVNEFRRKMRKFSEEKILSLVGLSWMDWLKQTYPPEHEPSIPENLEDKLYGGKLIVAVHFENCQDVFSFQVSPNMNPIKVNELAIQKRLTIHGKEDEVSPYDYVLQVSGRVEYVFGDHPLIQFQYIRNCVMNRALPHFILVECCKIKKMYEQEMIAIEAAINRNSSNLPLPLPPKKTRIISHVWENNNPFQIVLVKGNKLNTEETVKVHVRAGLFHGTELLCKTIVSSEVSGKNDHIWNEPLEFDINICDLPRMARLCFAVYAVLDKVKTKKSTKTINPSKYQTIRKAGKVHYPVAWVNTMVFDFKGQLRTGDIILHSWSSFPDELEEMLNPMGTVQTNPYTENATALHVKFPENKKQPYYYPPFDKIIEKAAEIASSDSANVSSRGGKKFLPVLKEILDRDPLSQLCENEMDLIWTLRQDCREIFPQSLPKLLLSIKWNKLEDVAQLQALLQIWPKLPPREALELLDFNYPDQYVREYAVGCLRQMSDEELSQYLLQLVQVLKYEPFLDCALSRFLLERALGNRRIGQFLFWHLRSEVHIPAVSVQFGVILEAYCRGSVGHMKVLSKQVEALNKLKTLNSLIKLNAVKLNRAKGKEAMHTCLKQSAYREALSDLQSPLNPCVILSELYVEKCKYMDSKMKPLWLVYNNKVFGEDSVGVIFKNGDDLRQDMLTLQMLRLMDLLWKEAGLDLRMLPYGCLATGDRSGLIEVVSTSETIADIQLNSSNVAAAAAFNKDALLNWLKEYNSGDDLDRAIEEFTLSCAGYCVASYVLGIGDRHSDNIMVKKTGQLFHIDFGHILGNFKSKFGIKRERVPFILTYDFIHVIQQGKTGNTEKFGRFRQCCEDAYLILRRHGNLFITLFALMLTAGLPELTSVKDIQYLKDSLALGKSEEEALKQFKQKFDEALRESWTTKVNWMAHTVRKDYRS
PI3K (p110β/p85α), sequence (P27986 whole entry partner): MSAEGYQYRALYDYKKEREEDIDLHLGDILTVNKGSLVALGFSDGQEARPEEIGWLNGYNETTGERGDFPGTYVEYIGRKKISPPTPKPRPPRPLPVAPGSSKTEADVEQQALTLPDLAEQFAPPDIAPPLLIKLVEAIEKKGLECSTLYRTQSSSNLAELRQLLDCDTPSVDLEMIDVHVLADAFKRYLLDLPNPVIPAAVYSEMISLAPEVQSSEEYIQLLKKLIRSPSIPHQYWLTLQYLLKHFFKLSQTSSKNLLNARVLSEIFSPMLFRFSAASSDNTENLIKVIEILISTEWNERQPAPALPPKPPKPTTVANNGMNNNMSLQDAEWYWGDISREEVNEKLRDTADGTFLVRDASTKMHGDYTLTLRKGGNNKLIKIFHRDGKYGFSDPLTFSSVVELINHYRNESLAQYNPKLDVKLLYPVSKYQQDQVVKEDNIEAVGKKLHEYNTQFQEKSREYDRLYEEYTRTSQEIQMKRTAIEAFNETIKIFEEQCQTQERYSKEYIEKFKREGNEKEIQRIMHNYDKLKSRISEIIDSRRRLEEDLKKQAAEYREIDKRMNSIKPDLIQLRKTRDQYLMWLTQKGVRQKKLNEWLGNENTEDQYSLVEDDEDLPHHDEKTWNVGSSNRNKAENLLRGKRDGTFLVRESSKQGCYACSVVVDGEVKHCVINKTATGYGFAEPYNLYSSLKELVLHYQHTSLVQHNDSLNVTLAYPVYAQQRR

[6] = Brain penetration in male C57BL/6 mice after oral administration; assay type: in vivo; conditions: mouse; for Kp: male, C57BL/6, brain and plasma, PO 10 mg·kg^−1, read-out: BBB (Brain/Plasma Cone. Ratio)
Procedure: IV. Brain Penetration of Compounds in Male C57BL/6 Mice after Oral Administration Dose Formulation Preparation
Approximately 4 mg of a test compound was weighed and dispersed in 0.5% methyl cellulose (MC). After that, the whole mixture were vortexed until a solution or suspension was formed. The final concentration of the test compound was 1 mg·mL^−1. The concentration of test compound in dosing formulations was determined within 85% to 115% of nominal values.
The mice were housed in solid bottom polypropylene cages with sterilized bedding. The room was controlled and monitored for humidity (targeted mean range 40% to 70%) and temperature (targeted mean range 20° to 25° C.) with 10 to 20 air changes/hour. The room was on a 12-hour light/dark cycle except when interruptions were necessitated by study activities. The mice were supplied with sterilized diet and water. All animals were examined upon receipt and were acclimated for at least 3 days. Only animals that appeared to be healthy were selected for the study based on overall health, body weight, or other relevant data as appropriate.
All procedures performed on animals were in accordance with established guidelines and reviewed and approved by an independent institutional review board.
The mice were administrated with test compound at 10 mg·kg^−1 via oral gavage, respectively. The dosing formulations were freshly prepared. The actual body weights and actual volume administered were recorded accordingly.
Three mice were sacrificed under carbon dioxide for sample collection at 1, 2 and 4 hours post dose, respectively. Blood samples (˜0.2 mL) were collected via cardiac puncture into anticoagulant tubes (coated with EDTA-Ka). The tubes were gently inverted several times to ensure mixing. Whole blood was processed for plasma by centrifugation at 5,500 rpm for 10 min. The brain was collected immediately after euthanasia. The sample collection time was recorded accordingly. After the removal of excess water, the brain was weighed and homogenized with 5× water (w/v) in an ice bath. […]

[7] = read-out: PI3Kα Enzyme activity IC50
[8] = read-out: PI3Kδ Enzyme activity IC50
[9] = read-out: PI3Kγ Enzyme activity IC50
[10] = read-out: PI3Kβ Enzyme activity IC50

recombinant PI3K (p110δ/p85α), sequence (O00329 whole entry): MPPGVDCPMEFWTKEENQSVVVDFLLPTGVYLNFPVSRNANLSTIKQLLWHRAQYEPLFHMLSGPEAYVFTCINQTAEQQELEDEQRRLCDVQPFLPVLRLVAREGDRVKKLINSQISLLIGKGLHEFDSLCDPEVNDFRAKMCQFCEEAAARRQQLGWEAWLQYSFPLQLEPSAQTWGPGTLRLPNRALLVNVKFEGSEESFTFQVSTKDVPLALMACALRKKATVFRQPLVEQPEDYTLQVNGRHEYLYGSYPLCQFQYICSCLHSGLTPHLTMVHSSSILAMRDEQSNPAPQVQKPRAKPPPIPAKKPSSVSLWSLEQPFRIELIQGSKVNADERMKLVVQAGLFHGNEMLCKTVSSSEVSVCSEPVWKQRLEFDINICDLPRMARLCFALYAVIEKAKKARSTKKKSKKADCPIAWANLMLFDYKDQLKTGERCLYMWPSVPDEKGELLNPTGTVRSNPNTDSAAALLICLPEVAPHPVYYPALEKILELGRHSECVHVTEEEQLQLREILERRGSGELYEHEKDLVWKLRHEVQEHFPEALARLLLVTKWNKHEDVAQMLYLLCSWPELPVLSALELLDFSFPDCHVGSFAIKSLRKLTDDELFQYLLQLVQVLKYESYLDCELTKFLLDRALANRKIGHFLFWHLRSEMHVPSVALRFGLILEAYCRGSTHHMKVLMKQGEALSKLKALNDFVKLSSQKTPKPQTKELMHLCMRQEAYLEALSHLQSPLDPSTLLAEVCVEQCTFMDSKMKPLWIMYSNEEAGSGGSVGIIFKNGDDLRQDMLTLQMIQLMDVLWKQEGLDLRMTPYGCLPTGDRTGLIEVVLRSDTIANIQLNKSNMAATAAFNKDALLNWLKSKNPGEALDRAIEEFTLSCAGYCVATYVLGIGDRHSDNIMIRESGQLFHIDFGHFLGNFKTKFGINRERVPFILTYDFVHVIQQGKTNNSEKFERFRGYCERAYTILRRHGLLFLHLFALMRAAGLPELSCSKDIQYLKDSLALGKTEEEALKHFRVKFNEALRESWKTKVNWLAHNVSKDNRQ
recombinant PI3K (p110δ/p85α), sequence (P27986 whole entry partner): as the sequence (P27986 whole entry partner) above
recombinant PI3K (p110α/p85α), sequence (P42336 whole entry): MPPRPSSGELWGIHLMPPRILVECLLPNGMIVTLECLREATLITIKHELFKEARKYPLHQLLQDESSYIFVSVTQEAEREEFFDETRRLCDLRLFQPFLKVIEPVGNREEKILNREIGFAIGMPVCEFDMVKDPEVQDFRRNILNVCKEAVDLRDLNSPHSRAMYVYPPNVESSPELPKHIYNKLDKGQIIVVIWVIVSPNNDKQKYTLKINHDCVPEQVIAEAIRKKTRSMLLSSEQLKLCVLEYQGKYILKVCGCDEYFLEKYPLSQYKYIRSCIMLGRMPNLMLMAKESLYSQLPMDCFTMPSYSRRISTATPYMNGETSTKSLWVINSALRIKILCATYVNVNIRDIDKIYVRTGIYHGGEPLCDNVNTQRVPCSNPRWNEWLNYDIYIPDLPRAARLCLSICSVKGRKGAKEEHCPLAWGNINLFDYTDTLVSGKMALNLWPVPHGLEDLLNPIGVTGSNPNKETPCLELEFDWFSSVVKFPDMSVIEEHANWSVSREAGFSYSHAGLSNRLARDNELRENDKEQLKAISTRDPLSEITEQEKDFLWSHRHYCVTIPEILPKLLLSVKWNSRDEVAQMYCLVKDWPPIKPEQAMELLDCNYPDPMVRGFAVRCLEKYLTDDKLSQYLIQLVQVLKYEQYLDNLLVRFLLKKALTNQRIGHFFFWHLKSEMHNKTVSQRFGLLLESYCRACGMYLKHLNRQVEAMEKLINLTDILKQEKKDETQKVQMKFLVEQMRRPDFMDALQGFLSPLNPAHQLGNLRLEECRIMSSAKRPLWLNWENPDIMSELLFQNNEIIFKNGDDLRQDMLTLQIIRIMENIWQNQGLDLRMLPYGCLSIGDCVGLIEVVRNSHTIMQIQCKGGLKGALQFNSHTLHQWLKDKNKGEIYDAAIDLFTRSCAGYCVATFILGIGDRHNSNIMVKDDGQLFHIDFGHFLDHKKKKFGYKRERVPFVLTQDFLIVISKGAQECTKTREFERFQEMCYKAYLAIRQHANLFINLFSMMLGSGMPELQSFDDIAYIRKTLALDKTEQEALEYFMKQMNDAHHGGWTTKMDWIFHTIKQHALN
recombinant PI3K (p110α/p85α), sequence (P27986 whole entry partner): as the sequence (P27986 whole entry partner) above

CC(C)Oc1c(C(C)c2nc(Cl)c3c(N)nccn23)cc(Cl)c(F)c1C1CNC(=O)C1 (single isomer, unassigned) [Compound 48B, 4-(3-(1-(8-amino-1-chloroimidazo[1,5-a]pyrazin-3-yl)ethyl)-5-chloro-6-fluoro-2-isopropoxyphenyl)pyrrolidin-2-one]
IC50 ([1]; PI3Kα Enzyme activity IC50): 1300 nM | IC50 ([2]; PI3Kδ Enzyme activity IC50): 0.31 nM | AUC(0-inf) ([3]; 1 mg/kg, IV (1 mpk)): 425 ng·h/mL | clearance ([3]; 1 mg/kg, IV (1 mpk)): 39.2 mL/min/kg | half-life ([3]; 1 mg/kg, IV (1 mpk)): 1.4 h | Vd ([3]; 1 mg/kg, IV (1 mpk)): 4.3 L/kg | AUC(0-inf) ([3]; 5 mg/kg, PO (5 mpk)): 1000 ng·h/mL | Cmax ([3]; 5 mg/kg, PO (5 mpk)): 254 ng/mL | Tmax ([3]; 5 mg/kg, PO (5 mpk)): 0.8 h | bioavailability ([3]; 5 mg/kg, PO (5 mpk)): 47% | half-life ([3]; 5 mg/kg, PO (5 mpk)): 2.1 h | IC50 ([4]; PI3Kγ Enzyme activity IC50): 630 nM | IC50 ([5]; PI3Kβ Enzyme activity IC50): 1200 nM

CC(C)Oc1c([C@H](C)c2nc(Cl)c3c(N)nccn23)cc(Cl)c(F)c1-c1ccc(C(=O)N(C)C)nc1 [Compound 16A]
IC50 ([1]; PI3Kα Enzyme activity IC50): 790 nM | IC50 ([2]; PI3Kδ Enzyme activity IC50): 0.71 nM | AUC(0-inf) ([3]; 1 mg/kg, IV (1 mpk)): 1060 ng·h/mL | clearance ([3]; 1 mg/kg, IV (1 mpk)): 16 mL/min/kg | half-life ([3]; 1 mg/kg, IV (1 mpk)): 1.3 h | Vd ([3]; 1 mg/kg, IV (1 mpk)): 1.8 L/kg | AUC(0-inf) ([3]; 5 mg/kg, PO (5 mpk)): 2190 ng·h/mL | Cmax ([3]; 5 mg/kg, PO (5 mpk)): 496 ng/mL | Tmax ([3]; 5 mg/kg, PO (5 mpk)): 1 h | bioavailability ([3]; 5 mg/kg, PO (5 mpk)): 41.1% | half-life ([3]; 5 mg/kg, PO (5 mpk)): 1.9 h | IC50 ([4]; PI3Kγ Enzyme activity IC50): 440 nM | Kp [6]: 0.05 | IC50 ([5]; PI3Kβ Enzyme activity IC50): 870 nM

CC(C)Oc1c([C@H](C)c2nc(Cl)c3c(N)nccn23)cc(Cl)c(F)c1-c1ccc(C(F)(F)F)nc1 [Compound 40A]
IC50 ([1]; PI3Kα Enzyme activity IC50): 33000 nM | IC50 ([2]; PI3Kδ Enzyme activity IC50): 1 nM | AUC(0-inf) ([3]; 1 mg/kg, IV (1 mpk)): 768 ng·h/mL | clearance ([3]; 1 mg/kg, IV (1 mpk)): 22.2 mL/min/kg | half-life ([3]; 1 mg/kg, IV (1 mpk)): 9 h | Vd ([3]; 1 mg/kg, IV (1 mpk)): 14.8 L/kg | AUC(0-inf) ([3]; 5 mg/kg, PO (5 mpk)): 1720 ng·h/mL | Cmax ([3]; 5 mg/kg, PO (5 mpk)): 179 ng/mL | Tmax ([3]; 5 mg/kg, PO (5 mpk)): 2.7 h | bioavailability ([3]; 5 mg/kg, PO (5 mpk)): 51% | half-life ([3]; 5 mg/kg, PO (5 mpk)): 6.6 h | IC50 ([4]; PI3Kγ Enzyme activity IC50): 3800 nM | Kp [6]: 0.29 | Brain/Plasma Conc. Ratio (in words) ([6]; PO): much better Brain/Plasma Conc, Ratio | IC50 ([5]; PI3Kβ Enzyme activity IC50): 6800 nM

Cc1nc([C@@H](C)c2cc(Cl)c(F)c(-c3ccc(C(=O)NC(C)(C)C(=O)O)nc3)c2OC(C)C)n2ccnc(N)c12 [Compound 70, (S)-2-(5-(3-(1-(8-amino-1-methylimidazo[1,5-a]pyrazin-3-yl)ethyl)-5-chloro-6-fluoro-2-isopropoxyphenyl)picolinamido)-2-methylpropanoic Acid]
IC50 [1, 7]: 4400 nM | IC50 [2, 8]: 0.33 nM | IC50 [4, 9]: 840 nM | IC50 [5, 10]: 540 nM

Cc1nc([C@@H](C)c2cc(Cl)c(F)c(-c3ccc(C(=O)N4CCC(F)(F)CC4)nc3)c2OC(C)C)n2ccnc(N)c12 [Compound 71]
IC50 [1, 7]: 4700 nM | IC50 [2, 8]: 0.96 nM | IC50 [4, 9]: 3200 nM | IC50 [5, 10]: 2700 nM
